Tests used:
Dengue virus = test: Antiviral activity against DENV-NGC-1 infected in […] incubated for 7 days by CellTiter 96 luminescent cell viability assay; type: functional, organism-based; details: NGC-1, BHK, 168 h
Zika virus = test: Antiviral activity against ZIKV-SMGC-1 infected in […] incubated for 7 days by CellTiter 96 luminescent cell viability assay; type: functional, organism-based; details: SMGC-1, BHK, 168 h
[1] = Cytotoxicity against […] infected with ZIKV-SMGC-1 incubated for 7 days by CellTiter 96 luminescent cell viability assay; type: toxicity, cell-based; details: time 7 day
[2] = Cytotoxicity against […] infected with DENV-NGC-1 incubated for 7 days by CellTiter 96 luminescent cell viability assay; type: toxicity, cell-based; details: time 7 day
[3] = tested on: Japanese encephalitis virus; test: Antiviral activity against JEV-SA14 infected in […] incubated for 7 days by CellTiter 96 luminescent cell viability assay; type: functional, organism-based; details: 168 h
Yellow fever virus = test: Antiviral activity against YFV-17D infected in […] incubated for 7 days by CellTiter 96 luminescent cell viability assay; type: functional, organism-based; details: 168 h
[4] = Cytotoxicity against […] infected with JEV-SA14 incubated for 7 days by CellTiter 96 luminescent cell viability assay; type: toxicity, cell-based; details: time 7 day
[5] = Cytotoxicity against […] infected with YFV-17D incubated for 7 days by CellTiter 96 luminescent cell viability assay; type: toxicity, cell-based; details: time 7 day
Enterovirus A71 = test: Antiviral activity against EV71 infected in human RD cells incubated for 3 days by CellTiter 96 luminescent cell viability assay; type: functional, organism-based; details: Enterovirus A, 71, RD, 72 h
[6] = Cytotoxicity against human RD cells infected with EV71 incubated for 3 days by CellTiter 96 luminescent cell viability assay; type: toxicity, cell-based; details: time 3 day
[7] = Selectivity index, ratio of CC50 for […] to IC50 for ZIKV-SMGC-1 infected in […]; type: toxicity, cell-based; details: read-out: Ratio CC50/IC50
[8] = Selectivity index, ratio of CC50 for […] to IC50 for DENV-NGC infected in […]; type: toxicity, cell-based; details: read-out: Ratio CC50/IC50
[9] = Selectivity index, ratio of CC50 for […] to IC50 for JEV-SA14 infected in […]; type: toxicity, cell-based; details: read-out: Ratio CC50/IC50
[10] = Selectivity index, ratio of CC50 for […] to IC50 for YFV-17D infected in […]; type: toxicity, cell-based; details: read-out: Ratio CC50/IC50
[11] = Selectivity index, ratio of CC50 for human RD cells to IC50 for EV71 infected in human RD cells; type: toxicity, cell-based; details: read-out: Ratio CC50/IC50
Coxsackievirus A16 = test: Antiviral activity against CA16 infected in human RD cells incubated for 3 days by CellTiter 96 luminescent cell viability assay; type: functional, organism-based; details: Enterovirus A, 72 h
[12] = Cytotoxicity against human RD cells infected with CA16 incubated for 3 days by CellTiter 96 luminescent cell viability assay; type: toxicity, cell-based; details: time 3 day
[13] = Selectivity index, ratio of CC50 for human RD cells to IC50 for CA16 infected in human RD cells; type: toxicity, cell-based; details: read-out: Ratio CC50/IC50
Coxsackievirus = test: Antiviral activity against CA6 infected in human RD cells incubated for 3 days by CellTiter 96 luminescent cell viability assay; type: functional, organism-based; details: A6, RD, 72 h
[14] = Cytotoxicity against human RD cells infected with CA6 incubated for 3 days by CellTiter 96 luminescent cell viability assay; type: toxicity, cell-based; details: time 3 day
[15] = Selectivity index, ratio of CC50 for human RD cells to IC50 for CA6 infected in human RD cells; type: toxicity, cell-based; details: read-out: Ratio CC50/IC50

Row | Compound | IC50 (Dengue virus) | IC50 (Zika virus) | CC50 at 168 h [1] | CC50 at 168 h [2] | IC50 [3] | IC50 (Yellow fever virus) | CC50 at 168 h [4] | CC50 at 168 h [5] | IC50 (Enterovirus A71) | CC50 at 72 h [6] | selectivity ratio [7] | selectivity ratio [8] | selectivity ratio [9] | selectivity ratio [10] | selectivity ratio [11] | IC50 (Coxsackievirus A16) | CC50 at 72 h [12] | selectivity ratio [13] | further results
1 | O=C(c1ccc(C(F)(F)F)cc1O)c1[nH]c(Cl)c(Cl)c1-n1c(C(=O)c2ccc(C(F)(F)F)cc2O)cc(Cl)c1SCCO | 150 nM | 70 nM | 1420 nM | 500 nM | 680 nM | 600 nM | 1450 nM | 1450 nM | 550 nM | 1570 nM | 7.13 | 3.34 | 2.13 | 2.41 | 2.85 | – | – | – | –
2 | O=C(c1ccc(C(F)(F)F)cc1O)c1[nH]c(Cl)c(Cl)c1-n1c(C(=O)c2ccc(C(F)(F)F)cc2O)cc(Cl)c1Sc1nc[nH]n1 | – | 5670 nM | 13800 nM | – | 29400 nM | 24300 nM | 18700 nM | 18600 nM | – | – | 2.44 | – | 0.64 | 0.77 | – | – | – | – | –
3 | O=C(c1ccc(C(F)(F)F)cc1O)c1[nH]c(Cl)c(Cl)c1-n1c(C(=O)c2ccc(C(F)(F)F)cc2O)cc(Cl)c1SCc1ncccn1 | – | – | 610 nM | – | – | – | – | – | 200 nM | 560 nM | – | – | – | – | 2.78 | 80 nM | 830 nM | 10.4 | –
4 | O=C(c1ccc(C(F)(F)F)cc1O)c1[nH]c(Cl)c(Cl)c1-n1c(C(=O)c2ccc(C(F)(F)F)cc2O)cc(Cl)c1Sc1cccc[n+]1[O-] | 3680 nM | – | – | 8060 nM | – | 3130 nM | – | 8060 nM | – | – | – | 2.19 | – | 2.58 | – | 1070 nM | 8510 nM | 7.95 | –
5 | O=C(c1ccc(C(F)(F)F)cc1O)c1[nH]c(Cl)c(Cl)c1-n1c(C(=O)c2ccc(C(F)(F)F)cc2O)cc(Cl)c1Sc1cnccn1 | 290 nM | 250 nM | 1460 nM | 1460 nM | 600 nM | 840 nM | 1210 nM | 1220 nM | – | – | 5.85 | 5.03 | 2.02 | 1.45 | – | 180 nM | 11000 nM | 60.9 | –
6 | CN(C)CCn1nnnc1Sc1c(Cl)cc(C(=O)c2ccc(C(F)(F)F)cc2O)n1-c1c(C(=O)c2ccc(C(F)(F)F)cc2O)[nH]c(Cl)c1Cl | 1870 nM | 1690 nM | 2820 nM | 2820 nM | 2110 nM | 1970 nM | 4140 nM | 4140 nM | 2470 nM | 3170 nM | 1.67 | 1.51 | 1.96 | 2.1 | 1.28 | – | – | – | –
7 | Cc1nnc(Sc2c(Cl)cc(C(=O)c3ccc(C(F)(F)F)cc3O)n2-c2c(C(=O)c3ccc(C(F)(F)F)cc3O)[nH]c(Cl)c2Cl)s1 | 760 nM | 780 nM | 440 nM | 440 nM | 930 nM | 850 nM | 1720 nM | 1720 nM | – | – | 0.57 | 0.58 | 1.85 | 2.02 | – | 280 nM | 2640 nM | 9.43 | –
8 | O=C(c1ccc(C(F)(F)F)cc1O)c1[nH]c(Cl)c(Cl)c1-n1c(C(=O)c2ccc(C(F)(F)F)cc2O)cc(Cl)c1Sc1ccccn1 | – | – | – | – | 210 nM | 50 nM | 230 nM | 230 nM | – | – | – | – | 1.1 | 4.6 | – | 10 nM | 230 nM | 22.8 | IC50 (Coxsackievirus): 190 nM; CC50 at 72 h [14]: 230 nM; selectivity ratio [15]: 1.2
9 | O=C(c1ccc(C(F)(F)F)cc1O)c1[nH]c(Cl)c(Cl)c1-n1c(C(=O)c2ccc(C(F)(F)F)cc2O)cc(Cl)c1Sc1nnnn1CCO | – | 6410 nM | 8010 nM | – | – | 8310 nM | – | 12200 nM | 4770 nM | 10800 nM | 1.25 | – | – | 1.47 | 2.27 | 2510 nM | 15300 nM | 6.1 | –
10 | O=C(c1ccc(C(F)(F)F)cc1O)c1[nH]c(Cl)c(Cl)c1-n1c(C(=O)c2ccc(C(F)(F)F)cc2O)cc(Cl)c1Sc1ncc[nH]1 | 1150 nM | 970 nM | 3750 nM | 3750 nM | 1260 nM | 1280 nM | 3750 nM | 3750 nM | – | – | 3.87 | 3.26 | 2.98 | 2.93 | – | – | – | – | –
11 | O=C(c1ccc(C(F)(F)F)cc1O)c1[nH]c(Cl)c(Cl)c1-n1c(C(=O)c2ccc(C(F)(F)F)cc2O)cc(Cl)c1SCCCO | 230 nM | 100 nM | – | 1420 nM | 230 nM | 200 nM | 1420 nM | 1420 nM | – | – | 14.2 | 6.17 | 6.17 | 7.1 | – | – | – | – | IC50 (Coxsackievirus): 260 nM; CC50 at 72 h [14]: 1040 nM; selectivity ratio [15]: 4
12 | O=C(c1ccc(C(F)(F)F)cc1O)c1[nH]c(Cl)c(Cl)c1-n1c(C(=O)c2ccc(C(F)(F)F)cc2O)cc(Cl)c1Sc1nc2ccccc2[nH]1 | 21600 nM | 14500 nM | 110 nM | 25300 nM | – | 23200 nM | – | 30800 nM | – | – | 1.75 | 1.17 | – | 1.33 | – | 9130 nM | 45600 nM | 5 | –
13 | O=C(c1ccc(C(F)(F)F)cc1O)c1[nH]c(Cl)c(Cl)c1-n1c(C(=O)c2ccc(C(F)(F)F)cc2O)cc(Cl)c1Cl | > 300 nM | > 300 nM | – | – | > 200000 nM | > 200000 nM | – | – | 60 nM | 120 nM | – | – | – | – | 1.96 | 10 nM | 250 nM | 24.6 | –
14 | O=C(c1ccc(C(F)(F)F)cc1O)c1[nH]c(Cl)c(Cl)c1-n1c(C(=O)c2ccc(C(F)(F)F)cc2O)cc(Cl)c1Sc1nc2cccnc2[nH]1 | 22800 nM | 31400 nM | 1800 nM | 17100 nM | 24400 nM | 19700 nM | 19200 nM | 19300 nM | – | – | 0.54 | 0.75 | 0.79 | 0.98 | – | 5900 nM | 19900 nM | 3.37 | –
15 | [N-]=[N+]=NCCCSc1c(Cl)cc(C(=O)c2ccc(C(F)(F)F)cc2O)n1-c1c(C(=O)c2ccc(C(F)(F)F)cc2O)[nH]c(Cl)c1Cl | – | 90 nM | 500 nM | – | 90 nM | – | 310 nM | – | – | – | – | – | 3.44 | – | – | – | – | – | –
16 | O=C(c1ccc(C(F)(F)F)cc1O)c1[nH]c(Cl)c(Cl)c1-n1c(C(=O)c2ccc(C(F)(F)F)cc2O)cc(Cl)c1SCc1cccnc1 | 240 nM | 280 nM | – | 320 nM | – | – | – | – | 270 nM | 570 nM | 1.14 | 1.33 | – | – | 2.1 | 100 nM | 860 nM | 8.61 | –
17 | O=C(c1ccc(C(F)(F)F)cc1O)c1[nH]c(Cl)c(Cl)c1-n1c(C(=O)c2ccc(C(F)(F)F)cc2O)cc(Cl)c1Sc1nc2ccccc2s1 | 1040 nM | 910 nM | 17100 nM | 110 nM | 700 nM | 820 nM | 1180 nM | 1170 nM | – | – | 0.12 | 0.11 | 1.68 | 1.43 | – | 130 nM | 1460 nM | 11.3 | –
18 | O=C(c1ccc(C(F)(F)F)cc1O)c1[nH]c(Cl)c(Cl)c1-n1c(C(=O)c2ccc(C(F)(F)F)cc2O)cc(Cl)c1SCCc1ccccn1 | – | 150 nM | 25400 nM | – | 620 nM | 570 nM | 610 nM | 610 nM | 50 nM | 270 nM | 4.07 | – | 0.98 | 1.07 | 5.4 | 20 nM | 350 nM | 17.5 | –
